# Measurements: patent publication US8865698B2, “Method of treatment using substituted pyrazolo[1,5-a]pyrimidine compounds” (Array BioPharma Inc., priority 2008, dated 2014)
# Where a name gives a salt, the structure may show the parent alone.
# Molecular target: histidine-tagged recombinant human TrkA, cytoplasmic domain (Homo sapiens (Human), UniProt P04629)
# Experiment: TrkA ELISA Assay
# Type: biochemical
# Conditions: 2.5 nM TrkA, 500 μM ATP, 25 minutes; read-out: TrkA Elisa Enzyme IC50
# Experimental: An enzyme-linked immunosorbant assay (ELISA) was used to assess TrkA kinase activity in the presence of inhibitors. Immulon 4HBX 384-well microtiter plates (Thermo part #8755) were coated with a 0.025 mg/mL solution of poly (Glu, Ala, Tyr; 6:3:1; Sigma P3899). Various concentrations of test compound, 2.5 nM TrkA (Invitrogen Corp., histidine-tagged recombinant human TrkA, cytoplasmic domain), and 500 μM ATP were incubated for 25 minutes at ambient temperature in the coated plates while shaking. The assay buffer consisted of 25 mM MOPS pH 7.5, 0.005% (v/v) Triton X-100 and 5 mM MgCl2. The reaction mixture was removed from the plate by washing with PBS containing 0.1% (v/v) Tween 20. The phosphorylated reaction product was detected using 0.2 μg/mL of a phosphotyrosine specific monoclonal antibody (clone PY20) conjugated to horseradish peroxidase in conjunction with the TMB Peroxidase Substrate System (KPL). After the addition of 1M phosphoric acid, the chromogenic substrate color intensity was quantitated via absorbance at 450 nm. IC50 values were calculated using either a 4 or 5-parameter logistic curve fit.
# Chain of histidine-tagged recombinant human TrkA, cytoplasmic domain (P04629 440-796): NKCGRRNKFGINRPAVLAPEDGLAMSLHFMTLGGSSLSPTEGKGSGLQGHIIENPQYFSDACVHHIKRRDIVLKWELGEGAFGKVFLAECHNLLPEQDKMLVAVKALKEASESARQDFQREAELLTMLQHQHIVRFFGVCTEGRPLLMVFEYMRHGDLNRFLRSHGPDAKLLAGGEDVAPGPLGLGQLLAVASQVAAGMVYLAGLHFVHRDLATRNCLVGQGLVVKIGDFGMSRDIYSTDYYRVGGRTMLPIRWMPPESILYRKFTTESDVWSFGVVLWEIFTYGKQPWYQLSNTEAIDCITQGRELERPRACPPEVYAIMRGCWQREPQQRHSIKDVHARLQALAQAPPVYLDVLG
row,IC50 [nM],Compound
1,20.7,"O=C(Nc1cnn2ccc(N3CCC[C@@H]3c3cc(F)ccc3F)nc12)N1CC(O)C1 [Example 1, (R)—N-(5-(2-(2,5-difluorophenyl)pyrrolidin-1-yl)pyrazolo[1,5-a]pyrimidin-3-yl)-3-hydroxyazetidine-1-carboxamide]"
2,15.8,"CN(C)C(=O)Nc1cnn2ccc(N3CCC[C@@H]3c3cc(F)ccc3F)nc12 [Example 2, (R)-3-(5-(2-(2,5-difluorophenyl)pyrrolidin-1-yl)pyrazolo[1,5-a]pyrimidin-3-yl)-1,1-dimethylurea]"
3,22.2,"CC(C)(C)NC(=O)Nc1cnn2ccc(N3CCC[C@@H]3c3cc(F)ccc3F)nc12 [Example 3, (R)-1-tert-butyl-3-(5-(2-(2,5-difluorophenyl)pyrrolidin-1-yl)pyrazolo[1,5-a]pyrimidin-3-yl)urea]"
4,5,"O=C(Nc1ccccc1)Nc1cnn2ccc(N3CCC[C@@H]3c3cc(F)ccc3F)nc12 [Example 4, (R)-1-(5-(2-(2,5-difluorophenyl)pyrrolidin-1-yl)pyrazolo[1,5-a]pyrimidin-3-yl)-3-phenylurea]"
5,12.1,"CC(C)C(=O)Nc1cnn2ccc(N3CCC[C@@H]3c3cc(F)ccc3F)nc12 [Example 5, (R)—N-(5-(2-(2,5-difluorophenyl)pyrrolidin-1-yl)pyrazolo[1,5-a]pyrimidin-3-yl)isobutyramide]"
6,19.2,"Cn1nc(C(=O)Nc2cnn3ccc(N4CCC[C@@H]4c4cccc(F)c4)nc23)ccc1=O [Example 6, (R)—N-(5-(2-(3-fluorophenyl)pyrrolidin-1-yl)pyrazolo[1,5-a]pyrimidin-3-yl)-1-methyl-6-oxo-1,6-dihydropyridazine-3-carboxamide]"
7,77.5,"O=C(Nc1cnn2ccc(N3CC(F)(F)C[C@@H]3c3cccc(F)c3)nc12)N1CC(O)C1 [Example 7, (R)—N-(5-(4,4-difluoro-2-(3-fluorophenyl)pyrrolidin-1-yl)pyrazolo[1,5-a]pyrimidin-3-yl)-3-hydroxyazetidine-1-carboxamide]"
8,13.7,"O=C(Nc1cnn2ccc(N3CCC[C@@H]3c3cc(F)ccc3Cl)nc12)N1CC(O)C1 [Example 8, (R)—N-(5-(2-(2-chloro-5-fluorophenyl)pyrrolidin-1-yl)pyrazolo[1,5-a]pyrimidin-3-yl)-3-hydroxyazetidine-1-carboxamide]"
9,821,"O=C(Nc1cnn2ccc(N3CCC[C@@H]3c3cccc(F)c3)nc12)N1CCOCC1 [Example 9, (R)—N-(5-(2-(3-fluorophenyl)pyrrolidin-1-yl)pyrazolo[1,5-a]pyrimidin-3-yl)morpholine-4-carboxamide]"
10,188,"CC1(c2cccc(F)c2)CCCN1c1ccn2ncc(NC(=O)N3CC(O)C3)c2n1 (stereo not shown) [Example 10, N-(5-(2-(3-fluorophenyl)-2-methylpyrrolidin-1-yl)pyrazolo[1,5-a]pyrimidin-3-yl)-3-hydroxyazetidine-1-carboxamide]"
11,171,"O=C(Nc1cnn2ccc(N3CCC[C@@H]3c3cc(F)cc(Cl)c3)nc12)N1CC(O)C1 [Example 11, (R)—N-(5-(2-(3-chloro-5-fluorophenyl)pyrrolidin-1-yl)pyrazolo[1,5-a]pyrimidin-3-yl)-3-hydroxyazetidine-1-carboxamide]"
12,26.5,"O=C(Nc1cnn2ccc(N3CCC[C@@H]3c3cc(F)ccc3C(F)F)nc12)N1CC(O)C1 [Example 12, (R)—N-(5-(2-(2-(difluoromethyl)-5-fluorophenyl)pyrrolidin-1-yl)pyrazolo[1,5-a]pyrimidin-3-yl)-3-hydroxyazetidine-1-carboxamide]"
13,32.2,"O=C(Nc1cnn2ccc(N3CCC[C@@H]3c3cc(F)ccc3F)nc12)N1CCOCC1 [Example 13, (R)—N-(5-(2-(2,5-difluorophenyl)pyrrolidin-1-yl)pyrazolo[1,5-a]pyrimidin-3-yl)morpholine-4-carboxamide]"
14,13.3,"O=C(Nc1cnn2ccc(N3CCC[C@@H]3c3cc(F)ccc3F)nc12)N1C[C@@H](O)[C@H](O)C1 [Example 15, (3R,4R)—N-(5-((R)-2-(2,5-difluorophenyl)pyrrolidin-1-yl)pyrazolo[1,5-a]pyrimidin-3-yl)-3,4-dihydroxypyrrolidine-1-carboxamide]"
15,27.5,"COC1CN(C(=O)Nc2cnn3ccc(N4CCC[C@@H]4c4cc(F)ccc4F)nc23)C1 [Example 16, (R)—N-(5-(2-(2,5-difluorophenyl)pyrrolidin-1-yl)pyrazolo[1,5-a]pyrimidin-3-yl)-3-methoxyazetidine-1-carboxamide]"
16,19.7,"CC1(O)CN(C(=O)Nc2cnn3ccc(N4CCC[C@@H]4c4cc(F)ccc4F)nc23)C1 [Example 17, (R)—N-(5-(2-(2,5-difluorophenyl)pyrrolidin-1-yl)pyrazolo[1,5-a]pyrimidin-3-yl)-3-hydroxy-3-methylazetidine-1-carboxamide]"

row,IC50 [nM],Compound
1,4.6,"O=C(Nc1ccc(F)cc1)Nc1cnn2ccc(N3CCC[C@@H]3c3cc(F)ccc3F)nc12 [Example 18, (R)-1-(5-(2-(2,5-difluorophenyl)pyrrolidin-1-yl)pyrazolo[1,5-a]pyrimidin-3-yl)-3-(4-fluorophenyl)urea]"
2,10.1,"O=C(Nc1ccc(Cl)cc1)Nc1cnn2ccc(N3CCC[C@@H]3c3cc(F)ccc3F)nc12 [Example 19, (R)-1-(4-chlorophenyl)-3-(5-(2-(2,5-difluorophenyl)pyrrolidin-1-yl)pyrazolo[1,5-a]pyrimidin-3-yl)urea]"
3,4.8,"COc1ccc(NC(=O)Nc2cnn3ccc(N4CCC[C@@H]4c4cc(F)ccc4F)nc23)cc1 [Example 20, (R)-1-(5-(2-(2,5-difluorophenyl)pyrrolidin-1-yl)pyrazolo[1,5-a]pyrimidin-3-yl)-3-(4-methoxyphenyl)urea]"
4,27.9,"COC1CN(C(=O)Nc2cnn3ccc(N4CCC[C@@H]4c4cc(F)ccc4Cl)nc23)C1 [Example 21, (R)—N-(5-(2-(2-chloro-5-fluorophenyl)pyrrolidin-1-yl)pyrazolo[1,5-a]pyrimidin-3-yl)-3-methoxyazetidine-1-carboxamide]"
5,11.5,"CC1(O)CN(C(=O)Nc2cnn3ccc(N4CCC[C@@H]4c4cc(F)ccc4Cl)nc23)C1 [Example 22, (R)—N-(5-(2-(2-chloro-5-fluorophenyl)pyrrolidin-1-yl)pyrazolo[1,5-a]pyrimidin-3-yl)-3-hydroxy-3-methylazetidine-1-carboxamide]"
6,41.7,"O=C(Nc1cnn2ccc(N3CCC[C@@H]3c3cc(F)ccc3Cl)nc12)N1CCOCC1 [Example 23, (R)—N-(5-(2-(2-chloro-5-fluorophenyl)pyrrolidin-1-yl)pyrazolo[1,5-a]pyrimidin-3-yl)morpholine-4-carboxamide]"
7,55,"C[C@H]1CN(C(=O)Nc2cnn3ccc(N4CCC[C@@H]4c4cc(F)ccc4Cl)nc23)CCN1C(=O)OC(C)(C)C [Example 24, (S)-tert-butyl 4-(5-((R)-2-(2-chloro-5-fluorophenyl)pyrrolidin-1-yl)pyrazolo[1,5-a]pyrimidin-3-ylcarbamoyl)-2-methylpiperazine-1-carboxylate]"
8,82.3,"C[C@H]1CN(C(=O)Nc2cnn3ccc(N4CCC[C@@H]4c4cc(F)ccc4Cl)nc23)CCN1 [Example 25, (S)—N-(5-((R)-2-(2-chloro-5-fluorophenyl)pyrrolidin-1-yl)pyrazolo[1,5-a]pyrimidin-3-yl)-3-methylpiperazine-1-carboxamide hydrochloride]"
9,45,"CC(C)N1CCN(C(=O)Nc2cnn3ccc(N4CCC[C@@H]4c4cc(F)ccc4F)nc23)CC1 [Example 26, (R)—N-(5-(2-(2,5-difluorophenyl)pyrrolidin-1-yl)pyrazolo[1,5-a]pyrimidin-3-yl)-4-isopropylpiperazine-1-carboxamide]"
10,107,"CCN1CCN(C(=O)Nc2cnn3ccc(N4CCC[C@@H]4c4cc(F)ccc4F)nc23)CC1 [Example 27, (R)—N-(5-(2-(2,5-difluorophenyl)pyrrolidin-1-yl)pyrazolo[1,5-a]pyrimidin-3-yl)-4-ethylpiperazine-1-carboxamide]"
11,57.4,"CN1CCN(C(=O)Nc2cnn3ccc(N4CCC[C@@H]4c4cc(F)ccc4F)nc23)CC1 [Example 28, (R)—N-(5-(2-(2,5-difluorophenyl)pyrrolidin-1-yl)pyrazolo[1,5-a]pyrimidin-3-yl)-4-methylpiperazine-1-carboxamide]"
12,98,CC1CN(C(=O)Nc2cnn3ccc(N4CCC[C@@H]4c4cc(F)ccc4F)nc23)CC(C)N1 (stereo partly shown) [Example 29]
13,154,"C[C@H]1CN(C(=O)Nc2cnn3ccc(N4CCC[C@@H]4c4cc(F)ccc4F)nc23)CCN1C(=O)OC(C)(C)C [Example 30, (S)-tert-butyl 4-(5-((R)-2-(2,5-difluorophenyl)pyrrolidin-1-yl)pyrazolo[1,5-a]pyrimidin-3-ylcarbamoyl)-2-methylpiperazine-1-carboxylate]"
14,88.3,"C[C@H]1CN(C(=O)Nc2cnn3ccc(N4CCC[C@@H]4c4cc(F)ccc4F)nc23)CCN1 [Example 31, (S)—N-(5-((R)-2-(2,5-difluorophenyl)pyrrolidin-1-yl)pyrazolo[1,5-a]pyrimidin-3-yl)-3-methylpiperazine-1-carboxamide hydrochloride]"
15,116,"O=C(Nc1cnn2ccc(N3CCC[C@@H]3c3cccc(F)c3)nc12)N1CC(O)C1 [Example 32, (R)—N-(5-(2-(3-fluorophenyl)pyrrolidin-1-yl)pyrazolo[1,5-a]pyrimidin-3-yl)-3-hydroxyazetidine-1-carboxamide]"
